According to patent US11160797B2, “Pyridinone derivatives and their use as selective ALK-2 inhibitors” (NOVARTIS AG, priority 2017, dated 2021):

Key:
[1] = system: 18-month-old Wistar female rats; test: Bone gain in aged rats (pQCT and micro-CT, proximal tibia metaphysis); format: in vivo, rat; conditions: 5 mg/kg q.d. oral, 8 weeks, mean ± SEM
Description: To assess the bone anabolic potential of compound A, its therapeutic efficacy in aged female rats as a model of age-related human osteoporosis and other low bone mass conditions was tested. To this end, 18-month-old Wistar female rats (n=8-9 rats per group; body weight range: 330-460 g) were subjected to two-month once daily oral treatment with compound A (5 mg/kg q.d.) or vehicle (sodium carboxymethyl cellulose:water:Tween 80, 0.5:99:0.5). Rats were housed at 25° C. with a 12:12 h light-dark cycle and were fed a standard rodent diet containing 18.2% protein and 3.0% fat with an energy content of 15.8 MJ/kg (3890, Provimi Kliba SA) with food and water provided ad libitum. Treatment efficacy was determined by in vivo peripheral quantitative computed tomography (pQCT) and micro-computed tomography (micro-CT) in the left proximal tibia metaphysis under isoflurane inhalation narcosis (Stratec-Norland XCT-2000 pQCT; voxel size: 0.1 mm×0.1 mm×0.5 mm; vivaCT40 instrument, Scanco Medical AG; 12.5 μm resolution) after 8 weeks of treatment. […] The latter was related to enhanced trabecular thickness, but not number. Thus, compound A is bone anabolic in the aged skeleton.

male Sprague Dawley rats = test: Turpentine oil-induced increase in serum hepcidin in rats; format: in vivo, rat; conditions: for Serum hepcidin concentration: 24 h post-TO
Description: Measurements of serum hepcidin concentration were performed using a custom-made LC-MRM assay.
6 hours post-TO application sublingual blood samples were taken and serum was prepared from whole blood using clot activator centrifugation tubes (Sarstedt). […] 24 h post-TO application rats were sacrificed by CO2 overdosing and blood was isolated by venipuncture for serum preparation as described above. […] Statistical analyses were performed using GraphPad Prism software (GraphPad Software, Inc., La Jolla, Calif.) by two-way repeated measurement analysis of variance followed by Dunnett's multiple comparisons post-hoc test comparing treatment groups to the vehicle control group.

ALK5 (aa162-503) = ALK5 (aa162-503) (Homo sapiens (Human), UniProt P36897); test: Caliper biochemical peptide phosphorylation assay, ALK5; conditions: 15 uM ATP
In short: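 Baculovirus-expressed human GS+kinase-domain constructs (10 nM) with 2 uM fluorescein-labelled peptide and 15 uM ATP in 50 mM Hepes pH 7.5, 1 mM MgCl2, 12 mM MnCl2, 1 mM DTT, 10 uM Na3VO4, 60 min at 30 °C. EDTA stop; phospho/unphosphorylated peptide separated by microfluidic electrophoresis, r = p/(p+s); IC50 at half-maximal signal inhibition.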

female Wistar rats = test: Achilles midpoint tenotomy-induced heterotopic ossification in rats; format: in vivo, rat; conditions: 10 mg/kg q.d. oral
Excerpt: To test whether compound A was able to prevent trauma-induced heterotopic ossification (HO) of soft tissue, we tested its therapeutic efficacy in a rat model of unilateral Achilles midpoint tenotomy (Rooney et al., Matrix 12: 274-281, 1992). To this end, the left Achilles tendon of 8-week-old female Wistar rats (body weight between 190-265 g) was completely transected using a sterile scalpel (blade number 11) under isoflurane inhalation narcosis with concomitant analgesic treatment applying 0.03 mg/kg buprenorphine for 48 hours every 10-12 h subcutaneously. Preventive oral treatment with compound A (10 mg/kg q.d.) or vehicle (sodium carboxymethyl cellulose:water:Tween 80, 0.5:99:0.5) was given for 10 weeks starting on the day of surgery (n=11-12 rats per group). […] Treatment efficacy was assessed longitudinally by taking radiographs of the operated distal leg (Faxitron LX-60 system) at 4 and 10 weeks post-tenotomy. Heterotopic bone volume was quantified in vivo by micro-computed tomography (micro-CT) under isoflurane inhalation narcosis (vivaCT40 instrument, Scanco Medical AG; 17.5 μm resolution) at 6 and 9 weeks post-surgery. […]

[2] = molecular target: ALK2 FOP mutant (aa172-499 R206H) (Homo sapiens (Human), UniProt Q04771, R206H); test: Caliper biochemical peptide phosphorylation assay, ALK2 FOP; conditions: Caliper peptide phosphorylation, R206H, 15 uM ATP; read-out: ALK2 FOP EPK IC50
[3] = molecular target: T1, wild-type ALK2 (aa172-499) (Homo sapiens (Human), UniProt Q04771); test: ADPGlo biochemical autophosphorylation assay, ALK2; conditions: 15 uM ATP
ALK2(Q207D) mice = test: ALK2-dependent heterotopic ossification in ALK2(Q207D) transgenic mice; format: in vivo, mouse; conditions: 3 and 5 weeks post-induction, 10 mg/kg b.i.d. oral
[4] = molecular target: T1, wild-type ALK2 (aa172-499); test: Caliper biochemical peptide phosphorylation assay, ALK2; conditions: Caliper peptide phosphorylation, 15 uM ATP; read-out: ALK2 IC50
C57BL/6J male mice = conditions: mouse, in vivo

T1 sequence (Q04771 172-499): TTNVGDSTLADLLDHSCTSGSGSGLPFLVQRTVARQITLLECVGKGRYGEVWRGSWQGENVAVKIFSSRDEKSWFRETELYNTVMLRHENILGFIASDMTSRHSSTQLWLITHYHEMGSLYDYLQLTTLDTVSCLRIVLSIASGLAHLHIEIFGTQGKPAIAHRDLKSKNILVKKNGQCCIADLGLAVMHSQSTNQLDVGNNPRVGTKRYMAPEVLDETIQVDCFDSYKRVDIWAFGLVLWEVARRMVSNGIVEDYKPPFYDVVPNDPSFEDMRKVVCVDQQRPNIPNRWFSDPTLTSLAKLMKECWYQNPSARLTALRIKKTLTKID
Sequence of ALK2 FOP mutant (aa172-499 R206H) (Q04771 172-499 R206H): as the sequence (Q04771 172-499) above, with R35H counted along it
Sequence of ALK5 (aa162-503) (P36897 162-503): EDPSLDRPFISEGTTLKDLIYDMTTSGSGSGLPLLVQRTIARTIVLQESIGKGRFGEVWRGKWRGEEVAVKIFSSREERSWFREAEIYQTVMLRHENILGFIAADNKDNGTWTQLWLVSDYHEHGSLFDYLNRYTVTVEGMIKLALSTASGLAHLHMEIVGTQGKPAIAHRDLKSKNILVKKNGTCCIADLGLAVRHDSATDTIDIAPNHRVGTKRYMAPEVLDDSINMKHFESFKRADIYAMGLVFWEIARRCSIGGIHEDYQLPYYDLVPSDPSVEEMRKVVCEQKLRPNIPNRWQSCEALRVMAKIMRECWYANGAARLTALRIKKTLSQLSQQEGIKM

SMILES: CC(C)n1cc(-c2cncc(-c3ccc4c(c3)CC(=O)N4C)c2)ccc1=O [Example 1, 5-(1′-isopropyl-6′-oxo-1′,6′-dihydro-[3,3′-bipyridin]-5-yl)-1-methylindolin-2-one]
- Cancellous BV/TV, %-change versus baseline ([1]; micro-CT): 8.9 ± 3.0 %
- Cortical thickness, %-change versus baseline ([1]; micro-CT): 12.0 ± 2.2 %
- Total BMD, %-change versus baseline ([1]; micro-CT): 5.6 ± 0.6 %
- Trabecular number, %-change versus baseline ([1]; micro-CT): −0.6 ± 5.4%
- Trabecular thickness, %-change versus baseline ([1]; micro-CT): 11.1 ± 2.9 %
- Total BMC, %-change versus baseline ([1]; pQCT): 4.3 ± 1.7 %
- Serum hepcidin levels (male Sprague Dawley rats; 6 hours post-TO, 3 or 10 mg/kg p.o.): strongly suppressed
- Serum hepcidin concentration (male Sprague Dawley rats; 3 mg/kg p.o.): returned to levels of vehicle-treated TO-challenged rats
- Serum hepcidin concentration (male Sprague Dawley rats; 10 mg/kg p.o., p<0.001): significantly reduced
- IC50 (ALK5 (aa162-503)): 2600 nM
- Animals with radiographic evidence of beginning HO (female Wistar rats; 4 weeks post-tenotomy, vehicle 100%): 67%
- Total heterotopic bone volume (female Wistar rats; 6 and 9 weeks post-surgery, versus vehicle): significant reduction of HO
- IC50 [2]: 90 nM
- IC50 [3]: 110 nM
- Females in which heterotopic bone was absent (micro-CT) (ALK2(Q207D) mice): four of five
- Heterotopic bone (total heterotopic bone volume, micro-CT), males (ALK2(Q207D) mice): absent
- Female mice with radiographic evidence of HO (ALK2(Q207D) mice; vehicle 67%): one out of five
- Male mice with radiographic evidence of HO (ALK2(Q207D) mice; vehicle 83%): none
- IC50 [4]: 110 nM
- Blood hemoglobin (C57BL/6J male mice): significantly improved
- Hematocrit (C57BL/6J male mice): significantly improved
